Reference: patent US9833497B2, “Human originated EGF domain proteins and use of the same” (CHENGDU SOURCEBIO LIMITED-LIABILITY COMPANY, priority 2013, dated 2017)

What was measured:
Type in all cases: cell-based
E. coli DH5α = test: Antibacterial activity: MIC and growth curve against E. coli DH5α in 96-well plate; conditions: minimal inhibitory concentration against E. coli DH5α; 96-well plate, 5×10^5 CFU/mL, 37° C., judged after 8 h
How it was run: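 Log-phase DH5α (OD600 about 0.5, 37° C, 185 rpm in LB) was pelleted, resuspended in fresh LB and seeded at 5×10^5 CFU/mL with recombinant protein at 50, 25 and 12.5 μg/mL (two-fold series), in triplicate. Plates were shaken at 175 rpm, 37° C, and OD600 was read every 30 min. MIC was the lowest concentration with no growth.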

E. coli BL21 = test: MIC against Gram-negative bacteria: E. coli BL21; conditions: 5×10^5 CFU/mL; for MIC against E. coli BL21 / MIC (μg/mL) E. coli BL21: 10 h cultivation at 37° C.; for MIC E. coli BL21: 96-well plate, 37° C., 10 h
How it was run: (§1)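 MIC = lowest concentration of recombinant protein showing no growth. Test proteins: purified human-derived EGF domain proteins, two-fold dilution series, three wells per concentration; inoculum 5×10^5 CFU/mL in LB; incubation 37° C with shaking at 175 rpm.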

Pseudomonas aeruginosa = test: MIC against Gram-negative bacteria: Pseudomonas aeruginosa; conditions: 5×10^5 CFU/mL; for MIC against P. aeruginosa: Pseudomonas aeruginosa; for MIC against P. aeruginosa / MIC (μg/mL) P. aeruginosa: 10 h cultivation at 37° C.; for MIC P. aeruginosa: 96-well plate, 37° C., 10 h
How it was run: as §1

Klebsiella pneumonia = test: MIC against Gram-negative bacteria: Klebsiella pneumonia; conditions: 5×10^5 CFU/mL; for MIC against K. pneumonia: Klebsiella pneumonia; for MIC against K. pneumonia / MIC (μg/mL) K. pneumonia: 10 h cultivation at 37° C.; for MIC K. pneumonia: 96-well plate, 37° C., 10 h
How it was run: as §1

Enterobacter cloacae = test: MIC against Gram-negative bacteria: Enterobacter cloacae; conditions: 5×10^5 CFU/mL; for MIC against E. cloacae: Enterobacter cloacae; for MIC against E. cloacae / MIC (μg/mL) E. cloacae: 10 h cultivation at 37° C.; for MIC E. cloacae: 96-well plate, 37° C., 10 h
How it was run: as §1

Aeromonas hydrophila = test: MIC against Gram-negative bacteria: Aeromonas hydrophila; conditions: 5×10^5 CFU/mL; for MIC against A. hydrophila: Aeromonas hydrophila; for MIC against A. hydrophila / MIC (μg/mL) A. hydrophila: 10 h cultivation at 37° C.; for MIC A. hydrophila: 96-well plate, 37° C., 10 h
How it was run: as §1

Citrobacter diversus = test: MIC against Gram-negative bacteria: Citrobacter diversus; conditions: 5×10^5 CFU/mL; for MIC against C. diversus: Citrobacter diversus; for MIC against C. diversus / MIC (μg/mL) C. diversus: 10 h cultivation at 37° C.; for MIC C. diversus: 96-well plate, 37° C., 10 h
How it was run: as §1

Moraxella catarrhalis = test: MIC against Gram-negative bacteria: Moraxella catarrhalis; conditions: 5×10^5 CFU/mL; for MIC against M. catarrhalis: Moraxella catarrhalis; for MIC against M. catarrhalis / MIC (μg/mL) M. catarrhalis: 10 h cultivation at 37° C.; for MIC M. catarrhalis: 96-well plate, 37° C., 10 h
How it was run: as §1

Proteus mirabilis = test: MIC against Gram-negative bacteria: Proteus mirabilis; conditions: 5×10^5 CFU/mL; for MIC against P. mirabilis: Proteus mirabilis; for MIC against P. mirabilis / MIC (μg/mL) P. mirabilis: 10 h cultivation at 37° C.; for MIC P. mirabilis: 96-well plate, 37° C., 10 h
How it was run: as §1

Proteus vulgaris = test: MIC against Gram-negative bacteria: Proteus vulgaris; conditions: 5×10^5 CFU/mL; for MIC against P. vulgaris: Proteus vulgaris; for MIC against P. vulgaris / MIC (μg/mL) P. vulgaris: 10 h cultivation at 37° C.; for MIC P. vulgaris: 96-well plate, 37° C., 10 h
How it was run: as §1

Serratia marcescens = test: MIC against Gram-negative bacteria: Serratia marcescens; conditions: 5×10^5 CFU/mL; for MIC against S. marcescens: Serratia marcescens; for MIC against S. marcescens / MIC (μg/mL) S. marcescens: 10 h cultivation at 37° C.; for MIC S. marcescens: 96-well plate, 37° C., 10 h
How it was run: as §1

| Substance | MIC (E. coli DH5α) [µg/mL] | MIC against E. coli BL21 (E. coli BL21) [µg/mL] | MIC against P. aeruginosa (Pseudomonas aeruginosa) [µg/mL] | MIC against K. pneumonia (Klebsiella pneumonia) [µg/mL] | MIC against E. cloacae (Enterobacter cloacae) [µg/mL] | MIC against A. hydrophila (Aeromonas hydrophila) [µg/mL] | MIC against C. diversus (Citrobacter diversus) [µg/mL] | MIC against M. catarrhalis (Moraxella catarrhalis) [µg/mL] | MIC against P. mirabilis (Proteus mirabilis) [µg/mL] | MIC against P. vulgaris (Proteus vulgaris) [µg/mL] | MIC against S. marcescens (Serratia marcescens) [µg/mL] | MIC E. coli BL21 (E. coli BL21) [µg/mL] | MIC P. aeruginosa (Pseudomonas aeruginosa) [µg/mL] | MIC K. pneumonia (Klebsiella pneumonia) [µg/mL] | MIC E. cloacae (Enterobacter cloacae) [µg/mL] | MIC A. hydrophila (Aeromonas hydrophila) [µg/mL] | MIC C. diversus (Citrobacter diversus) [µg/mL] | MIC M. catarrhalis (Moraxella catarrhalis) [µg/mL] | MIC P. mirabilis (Proteus mirabilis) [µg/mL] | MIC P. vulgaris (Proteus vulgaris) [µg/mL] | other results |
| --- | --- | --- | --- | --- | --- | --- | --- | --- | --- | --- | --- | --- | --- | --- | --- | --- | --- | --- | --- | --- | --- |
| PRT1400 (VCSVDCGTHGVCIGGACRCEEGWTGAACD; listed as Homo sapiens) | 50 | 12.5 | 50 | 12.5 | 25 | 50 | 12.5 | 50 | 12.5 | 12.5 | 25 |  |  |  |  |  |  |  |  |  |  |
| PRT629 (CPCPGQSACTTIPESREVVCTHCPPGQRGRRCEVCDDGFFGDPLGLFGHPQPCHQ; listed as Homo sapiens) | 12.5 |  |  |  |  |  |  |  |  |  |  | 25 | 12.5 | 25 | 12.5 | 12.5 | 12.5 | 12.5 | 12.5 | 50 | MIC S. marcescens (Serratia marcescens): 12.5 µg/mL |
| PRT759 (RVDYCLLSDHGCEYSCVNMDRSFACQCPEGHVLRSDGKTCA; listed as Homo sapiens) | 25 |  |  |  |  |  |  |  |  |  |  |  |  |  |  |  |  |  |  |  | MIC (μg/mL) E. coli BL21 (E. coli BL21): 12.5 µg/mL; MIC (μg/mL) P. aeruginosa (Pseudomonas aeruginosa): 25 µg/mL; MIC (μg/mL) K. pneumonia (Klebsiella pneumonia): 12.5 µg/mL; MIC (μg/mL) E. cloacae (Enterobacter cloacae): 12.5 µg/mL; MIC (μg/mL) A. hydrophila (Aeromonas hydrophila): 12.5 µg/mL; MIC (μg/mL) C. diversus (Citrobacter diversus): 12.5 µg/mL; MIC (μg/mL) M. catarrhalis (Moraxella catarrhalis): 25 µg/mL; MIC (μg/mL) P. mirabilis (Proteus mirabilis): 12.5 µg/mL; MIC (μg/mL) P. vulgaris (Proteus vulgaris): 12.5 µg/mL; MIC (μg/mL) S. marcescens (Serratia marcescens): 25 µg/mL |
| PRT807 (YGDGCQLPCTCQNGADCHSITGGCTCAPGFMGEVCA; listed as Homo sapiens) | 25 |  |  |  |  |  |  |  |  |  |  |  |  |  |  |  |  |  |  |  | MIC (μg/mL) E. coli BL21 (E. coli BL21): 50 µg/mL; MIC (μg/mL) P. aeruginosa (Pseudomonas aeruginosa): 25 µg/mL; MIC (μg/mL) K. pneumonia (Klebsiella pneumonia): 12.5 µg/mL; MIC (μg/mL) E. cloacae (Enterobacter cloacae): 50 µg/mL; MIC (μg/mL) A. hydrophila (Aeromonas hydrophila): 12.5 µg/mL; MIC (μg/mL) C. diversus (Citrobacter diversus): 25 µg/mL; MIC (μg/mL) M. catarrhalis (Moraxella catarrhalis): 50 µg/mL; MIC (μg/mL) P. mirabilis (Proteus mirabilis): 12.5 µg/mL; MIC (μg/mL) P. vulgaris (Proteus vulgaris): 50 µg/mL; MIC (μg/mL) S. marcescens (Serratia marcescens): 12.5 µg/mL |
| PRT711 (GDNMCRVNNGGCSTLCLAIPGGRVCACADNQLLDENGTTCT; listed as Homo sapiens) | 25 |  |  |  |  |  |  |  |  |  |  | 12.5 | 50 | 12.5 | 25 | 50 | 12.5 | 50 | 12.5 | 25 | MIC S. marcescens (Serratia marcescens): 50 µg/mL |
| PRT1390 (EEDCLDPMCSNHGICVKGECHCSTGWGGVNCET; listed as Homo sapiens) | 12.5 | 12.5 | 12.5 | 50 | 12.5 | 50 | 25 | 50 | 25 | 50 | 50 |  |  |  |  |  |  |  |  |  |  |
